According to the supplement of paper PMC10307832:

Legend:
Test in all cases: relative viability (nuclei count vs DMSO), 5 days (fraction); higher = more cells survive
[1] = compound: O=C(NCCCNc1nc(Nc2cccc(NC(=O)N3CCCC3)c2)ncc1I)c1cccs1 [BX 795] + Nc1ncn([C@H]2C[C@H](O)[C@@H](CO)O2)c(=O)n1 [Decitabine] (partner 2 µM)
Summary of the method: (§1)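 Five library-drug doses in √10 steps were combined with a fixed anchor-drug dose, or a single drug was given alone, by pin tool to lung cancer cell lines in 1536-well plates the day after seeding. Nuclei were stained and counted after 5 days. Relative viability is the nuclei count in treated wells over that in vehicle wells, taken as the median of duplicate plates.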

[2] = compound: O=C(NCCCNc1nc(Nc2cccc(NC(=O)N3CCCC3)c2)ncc1I)c1cccs1 [BX 795] + CC1(C)CCC(c2ccc(Cl)cc2)=C(CN2CCN(c3ccc(C(=O)NS(=O)(=O)c4ccc(N[C@H](CCN5CCOCC5)CSc5ccccc5)c(S(=O)(=O)C(F)(F)F)c4)cc3)CC2)C1 [Navitoclax] (partner 0.5 µM)
Summary of the method: as §1

[3] = compound: O=C(NCCCNc1nc(Nc2cccc(NC(=O)N3CCCC3)c2)ncc1I)c1cccs1 [BX 795] + COc1cc2c(Oc3ccc(NC(=O)C4(C(=O)Nc5ccc(F)cc5)CC4)cc3F)ccnc2cc1OCCCN1CCOCC1 [Foretinib] (partner 0.25 µM)
Summary of the method: as §1

[4] = compound: O=C(NCCCNc1nc(Nc2cccc(NC(=O)N3CCCC3)c2)ncc1I)c1cccs1 [BX 795] + Cc1nc(NC(=O)N2CCC[C@H]2C(N)=O)sc1-c1ccnc(C(C)(C)C(F)(F)F)c1 [Alpelisib] (partner 2 µM)
Summary of the method: as §1

[5] = compound: O=C(NCCCNc1nc(Nc2cccc(NC(=O)N3CCCC3)c2)ncc1I)c1cccs1 [BX 795] + CS(=O)(=O)CCNCc1ccc(-c2ccc3ncnc(Nc4ccc(OCc5cccc(F)c5)c(Cl)c4)c3c2)o1 [Lapatinib] (partner 2 µM)
Summary of the method: as §1

Cell Line NCI-H3122 has a relative viability ([1]; first compound 0.04 µM) of 0.415, a relative viability ([1]; first compound 0.1265 µM) of 0.428 and a relative viability ([1]; first compound 0.4 µM) of 0.477. It also gave a relative viability ([1]; first compound 1.265 µM) of 0.532, a relative viability ([2]; first compound 0.04 µM) of 1.03 and a relative viability ([2]; first compound 0.1265 µM) of 1. For the same cell line, the relative viability ([2]; first compound 0.4 µM) was 1.04, the relative viability ([2]; first compound 1.265 µM) was 1.05 and the relative viability ([3]; first compound 0.04 µM) was 1.01. For the same cell line, the relative viability ([3]; first compound 0.1265 µM) was 1.04, the relative viability ([3]; first compound 0.4 µM) was 1 and the relative viability ([3]; first compound 1.265 µM) was 0.992. The relative viability ([4]; first compound 0.04 µM) was 0.989, the relative viability ([4]; first compound 0.1265 µM) was 0.832 and the relative viability ([4]; first compound 0.4 µM) was 0.78. The relative viability ([4]; first compound 1.265 µM) was 0.866, the relative viability ([5]; first compound 0.04 µM) was 1.04 and the relative viability ([5]; first compound 0.1265 µM) was 1. It also gave a relative viability ([5]; first compound 0.4 µM) of 1.09 and a relative viability ([5]; first compound 1.265 µM) of 1.05.

With PC-3 [JPC-3] the relative viability ([1]; first compound 0.04 µM) was 0.834, the relative viability ([1]; first compound 0.4 µM) was 0.907 and the relative viability ([1]; first compound 1.265 µM) was 0.725. The relative viability ([2]; first compound 0.04 µM) was 0.864, the relative viability ([2]; first compound 0.1265 µM) was 0.838 and the relative viability ([2]; first compound 0.4 µM) was 0.905. For the same cell line, the relative viability ([2]; first compound 1.265 µM) was 0.75, the relative viability ([3]; first compound 0.04 µM) was 1.03 and the relative viability ([3]; first compound 0.1265 µM) was 1.03. The relative viability ([3]; first compound 0.4 µM) was 1.03, the relative viability ([3]; first compound 1.265 µM) was 0.949 and the relative viability ([4]; first compound 0.04 µM) was 1.02. For the same cell line, the relative viability ([4]; first compound 0.1265 µM) was 1.03, the relative viability ([4]; first compound 0.4 µM) was 1.15 and the relative viability ([4]; first compound 1.265 µM) was 1.02. The relative viability ([5]; first compound 0.04 µM) was 0.451, the relative viability ([5]; first compound 0.1265 µM) was 0.449 and the relative viability ([5]; first compound 0.4 µM) was 0.447. For the same cell line, the relative viability ([5]; first compound 1.265 µM) was 0.453.

Cell Line PC-14 has a relative viability ([1]; first compound 0.04 µM) of 0.226, a relative viability ([1]; first compound 0.1265 µM) of 0.211 and a relative viability ([1]; first compound 0.4 µM) of 0.17. The relative viability ([1]; first compound 1.265 µM) was 0.178, the relative viability ([2]; first compound 0.04 µM) was 0.976 and the relative viability ([2]; first compound 0.1265 µM) was 0.988. It also gave a relative viability ([2]; first compound 0.4 µM) of 1.08, a relative viability ([2]; first compound 1.265 µM) of 0.795 and a relative viability ([3]; first compound 0.04 µM) of 0.861. For the same cell line, the relative viability ([3]; first compound 0.1265 µM) was 1.01, the relative viability ([3]; first compound 0.4 µM) was 0.992 and the relative viability ([3]; first compound 1.265 µM) was 0.704. For the same cell line, the relative viability ([4]; first compound 0.04 µM) was 0.955, the relative viability ([4]; first compound 0.1265 µM) was 0.939 and the relative viability ([4]; first compound 0.4 µM) was 0.918. For the same cell line, the relative viability ([4]; first compound 1.265 µM) was 0.813, the relative viability ([5]; first compound 0.04 µM) was 0.284 and the relative viability ([5]; first compound 0.1265 µM) was 0.35. For the same cell line, the relative viability ([5]; first compound 0.4 µM) was 0.271 and the relative viability ([5]; first compound 1.265 µM) was 0.203.

RERF-LC-KJ gave a relative viability ([1]; first compound 0.04 µM) of 0.762, a relative viability ([1]; first compound 0.1265 µM) of 0.759 and a relative viability ([1]; first compound 0.4 µM) of 0.792. It also gave a relative viability ([1]; first compound 1.265 µM) of 0.56, a relative viability ([2]; first compound 0.04 µM) of 0.759 and a relative viability ([2]; first compound 0.1265 µM) of 0.93. For the same cell line, the relative viability ([2]; first compound 0.4 µM) was 0.771, the relative viability ([2]; first compound 1.265 µM) was 0.881 and the relative viability ([3]; first compound 0.04 µM) was 0.907. For the same cell line, the relative viability ([3]; first compound 0.1265 µM) was 0.851, the relative viability ([3]; first compound 0.4 µM) was 0.889 and the relative viability ([3]; first compound 1.265 µM) was 0.888. The relative viability ([4]; first compound 0.04 µM) was 0.73, the relative viability ([4]; first compound 0.1265 µM) was 0.938 and the relative viability ([4]; first compound 0.4 µM) was 0.818. The relative viability ([4]; first compound 1.265 µM) was 0.742, the relative viability ([5]; first compound 0.04 µM) was 0.865 and the relative viability ([5]; first compound 0.1265 µM) was 0.764. It also gave a relative viability ([5]; first compound 0.4 µM) of 0.886 and a relative viability ([5]; first compound 1.265 µM) of 0.792.

With SK-LU-1 the relative viability ([1]; first compound 0.04 µM) was 0.676, the relative viability ([1]; first compound 0.1265 µM) was 0.679 and the relative viability ([1]; first compound 0.4 µM) was 0.505. It also gave a relative viability ([1]; first compound 1.265 µM) of 0.601, a relative viability ([2]; first compound 0.04 µM) of 0.702 and a relative viability ([2]; first compound 0.1265 µM) of 0.915. It also gave a relative viability ([2]; first compound 0.4 µM) of 0.553, a relative viability ([2]; first compound 1.265 µM) of 0.724 and a relative viability ([3]; first compound 0.04 µM) of 0.762. It also gave a relative viability ([3]; first compound 0.1265 µM) of 0.902, a relative viability ([3]; first compound 1.265 µM) of 0.569 and a relative viability ([4]; first compound 0.04 µM) of 1.03. For the same cell line, the relative viability ([4]; first compound 0.1265 µM) was 0.946, the relative viability ([4]; first compound 0.4 µM) was 0.672 and the relative viability ([4]; first compound 1.265 µM) was 0.479. For the same cell line, the relative viability ([5]; first compound 0.04 µM) was 0.883, the relative viability ([5]; first compound 0.1265 µM) was 1.1 and the relative viability ([5]; first compound 0.4 µM) was 0.801. For the same cell line, the relative viability ([5]; first compound 1.265 µM) was 0.469.

SK-MES-1 showed a relative viability ([1]; first compound 0.04 µM) of 0.503, a relative viability ([1]; first compound 0.1265 µM) of 0.358 and a relative viability ([1]; first compound 0.4 µM) of 0.392. The relative viability ([1]; first compound 1.265 µM) was 0.39, the relative viability ([2]; first compound 0.04 µM) was 1.26 and the relative viability ([2]; first compound 0.1265 µM) was 1.32. For the same cell line, the relative viability ([2]; first compound 0.4 µM) was 1.23, the relative viability ([2]; first compound 1.265 µM) was 0.886 and the relative viability ([3]; first compound 0.04 µM) was 0.917. The relative viability ([3]; first compound 0.1265 µM) was 0.971, the relative viability ([3]; first compound 0.4 µM) was 0.823 and the relative viability ([3]; first compound 1.265 µM) was 0.674. The relative viability ([4]; first compound 0.04 µM) was 1.02, the relative viability ([4]; first compound 0.1265 µM) was 0.909 and the relative viability ([4]; first compound 0.4 µM) was 0.925. For the same cell line, the relative viability ([4]; first compound 1.265 µM) was 0.641, the relative viability ([5]; first compound 0.04 µM) was 0.509 and the relative viability ([5]; first compound 0.1265 µM) was 0.45. For the same cell line, the relative viability ([5]; first compound 0.4 µM) was 0.458 and the relative viability ([5]; first compound 1.265 µM) was 0.385.

In the case of SW 1573, the relative viability ([1]; first compound 0.04 µM) is reported as 0.651, the relative viability ([1]; first compound 0.1265 µM) is reported as 0.652 and the relative viability ([1]; first compound 0.4 µM) is reported as 0.581. It also gave a relative viability ([1]; first compound 1.265 µM) of 0.381, a relative viability ([2]; first compound 0.04 µM) of 0.886 and a relative viability ([2]; first compound 0.1265 µM) of 1.13. For the same cell line, the relative viability ([2]; first compound 0.4 µM) was 1.12, the relative viability ([2]; first compound 1.265 µM) was 0.837 and the relative viability ([3]; first compound 0.04 µM) was 0.916. It also gave a relative viability ([3]; first compound 0.1265 µM) of 0.844, a relative viability ([3]; first compound 0.4 µM) of 0.971 and a relative viability ([3]; first compound 1.265 µM) of 0.777. It also gave a relative viability ([4]; first compound 0.04 µM) of 0.766, a relative viability ([4]; first compound 0.1265 µM) of 0.734 and a relative viability ([4]; first compound 0.4 µM) of 1.01. For the same cell line, the relative viability ([4]; first compound 1.265 µM) was 0.674, the relative viability ([5]; first compound 0.04 µM) was 1.13 and the relative viability ([5]; first compound 0.1265 µM) was 1.18. For the same cell line, the relative viability ([5]; first compound 0.4 µM) was 1.26 and the relative viability ([5]; first compound 1.265 µM) was 0.781.

UMC-11 was tested, and the relative viability ([1]; first compound 0.04 µM) was 0.457, the relative viability ([1]; first compound 0.1265 µM) was 0.688 and the relative viability ([1]; first compound 0.4 µM) was 0.436. It also gave a relative viability ([1]; first compound 1.265 µM) of 0.593, a relative viability ([2]; first compound 0.04 µM) of 0.321 and a relative viability ([2]; first compound 0.1265 µM) of 0.347. The relative viability ([2]; first compound 0.4 µM) was 0.326, the relative viability ([2]; first compound 1.265 µM) was 0.17 and the relative viability ([3]; first compound 0.04 µM) was 0.85. For the same cell line, the relative viability ([3]; first compound 0.1265 µM) was 1.06, the relative viability ([3]; first compound 0.4 µM) was 0.805 and the relative viability ([3]; first compound 1.265 µM) was 0.168. For the same cell line, the relative viability ([4]; first compound 0.04 µM) was 1.02, the relative viability ([4]; first compound 0.1265 µM) was 1.14 and the relative viability ([4]; first compound 0.4 µM) was 1.02. It also gave a relative viability ([4]; first compound 1.265 µM) of 0.354, a relative viability ([5]; first compound 0.04 µM) of 0.949 and a relative viability ([5]; first compound 0.1265 µM) of 1.05. The relative viability ([5]; first compound 0.4 µM) was 0.757 and the relative viability ([5]; first compound 1.265 µM) was 0.333.
